Measurements: ChEMBL document CHEMBL4507293 (2021)

Tests used:
[1] = target: RAC-alpha serine/threonine-protein kinase (Homo sapiens) (UniProt P31749); settings: Compound concentration 100.0 nM
[2] = system: ALK tyrosine kinase receptor (Homo sapiens), Q9UM73 [L1196M]; settings: Compound concentration 100.0 nM
[3] = target: Ankyrin repeat and protein kinase domain-containing protein 1 (Homo sapiens) (UniProt Q8NFD2); settings: Compound concentration 100.0 nM
[4] = target: Calcium/calmodulin-dependent protein kinase type II subunit beta (Homo sapiens) (UniProt Q13554); settings: Compound concentration 100.0 nM
[5] = target: Calcium/calmodulin-dependent protein kinase kinase 2 (Homo sapiens) (UniProt Q96RR4); settings: Compound concentration 100.0 nM
[6] = target: Cyclin-dependent kinase 3 (Homo sapiens) (UniProt Q00526); settings: Compound concentration 100.0 nM
Sequence of Cyclin-dependent kinase 3 (Homo sapiens) (Q00526 whole entry, looked up): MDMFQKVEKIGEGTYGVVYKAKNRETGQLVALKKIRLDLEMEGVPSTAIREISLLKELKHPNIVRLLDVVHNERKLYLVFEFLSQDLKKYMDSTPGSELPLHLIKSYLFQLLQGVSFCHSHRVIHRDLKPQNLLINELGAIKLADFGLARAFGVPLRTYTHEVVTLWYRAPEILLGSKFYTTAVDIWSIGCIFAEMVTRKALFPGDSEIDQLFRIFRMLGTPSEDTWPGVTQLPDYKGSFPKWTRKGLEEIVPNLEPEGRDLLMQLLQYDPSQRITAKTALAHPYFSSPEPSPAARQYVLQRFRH

[7] = target: Serine/threonine-protein kinase Chk2 (Homo sapiens) (UniProt O96017); settings: Compound concentration 100.0 nM
[8] = target: Dual specificity protein kinase CLK2 (Homo sapiens) (UniProt P49760); settings: Compound concentration 100.0 nM
[9] = system: Epidermal growth factor receptor (Homo sapiens), P00533 [UNDEFINED MUTATION]; settings: Compound concentration 100.0 nM
[10] = system: Epidermal growth factor receptor (Homo sapiens), P00533 [T790M]; settings: Compound concentration 100.0 nM
[11] = target: Ephrin type-B receptor 1 (Homo sapiens) (UniProt P54762); settings: Compound concentration 100.0 nM
[12] = target: Fibroblast growth factor receptor 2 (Homo sapiens) (UniProt P21802); settings: Compound concentration 100.0 nM
[13] = system: Receptor-type tyrosine-protein kinase FLT3 (Homo sapiens), P36888 [D835Y]; settings: Compound concentration 100.0 nM
[14] = target: Receptor-type tyrosine-protein kinase FLT3 (Homo sapiens) (UniProt P36888); settings: Compound concentration 100.0 nM
[15] = target: Tyrosine-protein kinase Fyn (Homo sapiens) (UniProt P06241); settings: Compound concentration 100.0 nM
[16] = target: Rhodopsin kinase GRK1 (Homo sapiens) (UniProt Q15835); settings: Compound concentration 100.0 nM
[17] = target: Mitogen-activated protein kinase 9 (Homo sapiens) (UniProt P45984); settings: Compound concentration 100.0 nM
Sequence of Mitogen-activated protein kinase 9 (Homo sapiens) (P45984 whole entry, looked up): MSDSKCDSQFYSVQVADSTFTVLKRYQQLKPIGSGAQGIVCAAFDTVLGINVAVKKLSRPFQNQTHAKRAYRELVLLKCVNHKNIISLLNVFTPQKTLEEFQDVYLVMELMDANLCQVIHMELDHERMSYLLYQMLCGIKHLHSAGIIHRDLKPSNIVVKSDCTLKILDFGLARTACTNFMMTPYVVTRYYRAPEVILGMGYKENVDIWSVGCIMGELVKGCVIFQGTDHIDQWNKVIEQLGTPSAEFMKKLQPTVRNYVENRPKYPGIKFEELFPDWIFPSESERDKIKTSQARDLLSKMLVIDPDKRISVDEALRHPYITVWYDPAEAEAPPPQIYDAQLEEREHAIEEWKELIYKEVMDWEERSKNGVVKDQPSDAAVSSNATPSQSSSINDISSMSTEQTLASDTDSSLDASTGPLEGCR

[18] = target: Mitogen-activated protein kinase 10 (Homo sapiens) (UniProt P53779); settings: Compound concentration 100.0 nM
[19] = system: Mast/stem cell growth factor receptor Kit (Homo sapiens), P10721 [D816H]; settings: Compound concentration 100.0 nM
[20] = system: Mast/stem cell growth factor receptor Kit (Homo sapiens), P10721 [L576P]; settings: Compound concentration 100.0 nM
[21] = target: Mast/stem cell growth factor receptor Kit (Homo sapiens) (UniProt P10721); settings: Compound concentration 100.0 nM
[22] = target: Serine/threonine-protein kinase 10 (Homo sapiens) (UniProt O94804); settings: Compound concentration 100.0 nM
[23] = target: Myosin light chain kinase family member 4 (Homo sapiens) (UniProt Q86YV6); settings: Compound concentration 100.0 nM
[24] = target: Serine/threonine-protein kinase Nek10 (Homo sapiens) (UniProt Q6ZWH5); settings: Compound concentration 100.0 nM
Sequence of Serine/threonine-protein kinase Nek10 (Homo sapiens) (Q6ZWH5 whole entry): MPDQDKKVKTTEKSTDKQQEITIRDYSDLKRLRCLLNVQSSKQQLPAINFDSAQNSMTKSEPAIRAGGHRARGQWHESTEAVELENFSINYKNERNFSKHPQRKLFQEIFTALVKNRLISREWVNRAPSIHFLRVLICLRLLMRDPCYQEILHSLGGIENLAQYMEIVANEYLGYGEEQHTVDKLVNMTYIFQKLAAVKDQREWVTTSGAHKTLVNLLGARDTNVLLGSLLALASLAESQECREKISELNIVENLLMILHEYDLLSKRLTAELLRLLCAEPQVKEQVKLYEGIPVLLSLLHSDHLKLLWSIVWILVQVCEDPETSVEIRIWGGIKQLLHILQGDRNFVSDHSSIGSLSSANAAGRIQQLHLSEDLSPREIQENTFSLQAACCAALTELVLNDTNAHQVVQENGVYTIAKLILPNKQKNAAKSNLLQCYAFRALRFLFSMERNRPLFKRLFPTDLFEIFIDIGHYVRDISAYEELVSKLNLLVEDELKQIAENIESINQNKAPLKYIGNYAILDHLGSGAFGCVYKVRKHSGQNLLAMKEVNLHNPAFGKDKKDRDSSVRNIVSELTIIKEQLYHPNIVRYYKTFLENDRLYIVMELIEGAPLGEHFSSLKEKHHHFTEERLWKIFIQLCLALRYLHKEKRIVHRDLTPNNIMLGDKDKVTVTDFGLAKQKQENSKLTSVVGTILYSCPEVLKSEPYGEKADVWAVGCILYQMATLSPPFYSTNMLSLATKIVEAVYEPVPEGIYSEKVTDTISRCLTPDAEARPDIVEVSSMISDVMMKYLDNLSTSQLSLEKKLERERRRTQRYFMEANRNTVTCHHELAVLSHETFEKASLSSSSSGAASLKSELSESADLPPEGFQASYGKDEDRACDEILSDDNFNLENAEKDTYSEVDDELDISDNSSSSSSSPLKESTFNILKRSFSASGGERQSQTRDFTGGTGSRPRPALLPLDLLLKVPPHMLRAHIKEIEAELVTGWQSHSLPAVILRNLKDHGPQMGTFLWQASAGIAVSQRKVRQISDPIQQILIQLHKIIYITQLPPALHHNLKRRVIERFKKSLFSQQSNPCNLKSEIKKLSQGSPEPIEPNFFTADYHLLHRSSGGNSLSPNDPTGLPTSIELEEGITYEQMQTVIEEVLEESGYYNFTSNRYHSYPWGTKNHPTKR

[25] = target: Mitogen-activated protein kinase kinase kinase 14 (Homo sapiens) (UniProt Q99558); settings: Compound concentration 100.0 nM
[26] = target: Phosphatidylinositol 4-phosphate 5-kinase type-1 gamma (Homo sapiens) (UniProt O60331); settings: Compound concentration 100.0 nM
[27] = target: Phosphatidylinositol 5-phosphate 4-kinase type-2 beta (Homo sapiens) (UniProt P78356); settings: Compound concentration 100.0 nM
[28] = target: Serine/threonine-protein kinase PRP4 homolog (Homo sapiens) (UniProt Q13523); settings: Compound concentration 100.0 nM
Sequence of Serine/threonine-protein kinase PRP4 homolog (Homo sapiens) (Q13523 whole entry): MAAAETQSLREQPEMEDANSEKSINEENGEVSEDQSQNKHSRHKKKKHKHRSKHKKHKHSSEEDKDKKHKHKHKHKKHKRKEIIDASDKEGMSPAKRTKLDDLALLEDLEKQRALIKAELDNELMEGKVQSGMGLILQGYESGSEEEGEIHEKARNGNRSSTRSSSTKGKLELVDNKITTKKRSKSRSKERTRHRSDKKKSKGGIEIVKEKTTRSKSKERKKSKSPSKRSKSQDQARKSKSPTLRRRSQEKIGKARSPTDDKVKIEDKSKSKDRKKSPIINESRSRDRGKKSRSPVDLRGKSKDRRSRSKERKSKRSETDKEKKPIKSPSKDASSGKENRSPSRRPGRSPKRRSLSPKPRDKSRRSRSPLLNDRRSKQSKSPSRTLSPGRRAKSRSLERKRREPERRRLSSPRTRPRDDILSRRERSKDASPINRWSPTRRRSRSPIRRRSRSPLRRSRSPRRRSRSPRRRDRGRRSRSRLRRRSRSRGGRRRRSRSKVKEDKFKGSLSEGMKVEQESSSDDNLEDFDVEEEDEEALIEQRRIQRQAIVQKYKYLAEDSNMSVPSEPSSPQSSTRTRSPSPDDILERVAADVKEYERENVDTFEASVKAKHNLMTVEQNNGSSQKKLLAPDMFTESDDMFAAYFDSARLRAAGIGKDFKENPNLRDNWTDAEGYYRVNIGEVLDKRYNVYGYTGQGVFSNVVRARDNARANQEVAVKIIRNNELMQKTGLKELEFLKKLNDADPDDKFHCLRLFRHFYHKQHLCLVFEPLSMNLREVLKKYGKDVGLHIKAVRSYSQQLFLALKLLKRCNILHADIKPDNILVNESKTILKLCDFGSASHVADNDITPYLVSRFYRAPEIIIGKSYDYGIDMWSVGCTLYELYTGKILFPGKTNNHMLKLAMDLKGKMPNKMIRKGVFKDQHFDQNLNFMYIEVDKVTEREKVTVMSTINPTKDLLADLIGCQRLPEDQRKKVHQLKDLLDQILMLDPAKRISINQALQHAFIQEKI

[29] = target: Receptor-interacting serine/threonine-protein kinase 2 (Homo sapiens) (UniProt O43353); settings: Compound concentration 100.0 nM
[30] = target: Ribosomal protein S6 kinase alpha-4 (Homo sapiens) (UniProt O75676); settings: Compound concentration 100.0 nM
[31] = target: Ribosomal protein S6 kinase alpha-3 (Homo sapiens) (UniProt P51812); settings: Compound concentration 100.0 nM
Sequence of Ribosomal protein S6 kinase alpha-3 (Homo sapiens) (P51812 whole entry): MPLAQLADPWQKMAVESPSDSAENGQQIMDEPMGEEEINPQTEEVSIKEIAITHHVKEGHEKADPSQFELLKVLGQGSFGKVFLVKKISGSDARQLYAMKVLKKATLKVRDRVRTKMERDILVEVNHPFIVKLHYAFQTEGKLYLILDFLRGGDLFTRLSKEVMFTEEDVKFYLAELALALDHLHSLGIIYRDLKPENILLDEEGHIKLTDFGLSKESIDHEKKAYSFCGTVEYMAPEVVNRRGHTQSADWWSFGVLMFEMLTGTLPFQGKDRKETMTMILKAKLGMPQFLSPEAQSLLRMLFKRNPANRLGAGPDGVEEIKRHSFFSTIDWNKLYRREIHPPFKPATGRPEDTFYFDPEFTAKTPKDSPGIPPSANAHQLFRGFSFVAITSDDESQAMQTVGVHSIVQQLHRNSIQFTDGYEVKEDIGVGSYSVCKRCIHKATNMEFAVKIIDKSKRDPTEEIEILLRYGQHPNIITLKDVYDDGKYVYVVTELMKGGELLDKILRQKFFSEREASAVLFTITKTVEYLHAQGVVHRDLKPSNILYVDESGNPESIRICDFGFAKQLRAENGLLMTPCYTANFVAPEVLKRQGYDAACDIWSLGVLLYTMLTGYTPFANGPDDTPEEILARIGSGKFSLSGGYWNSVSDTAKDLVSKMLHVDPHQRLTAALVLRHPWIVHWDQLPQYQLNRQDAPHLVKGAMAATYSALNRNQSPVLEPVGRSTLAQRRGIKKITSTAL

[32] = target: Ribosomal protein S6 kinase alpha-3 (Homo sapiens) (UniProt P51812); settings: Compound concentration 100.0 nM; remark: listed apart in the source
[33] = target: Proto-oncogene tyrosine-protein kinase Src (Homo sapiens) (UniProt P12931); settings: Compound concentration 100.0 nM
[34] = target: Serine/threonine-protein kinase TAO3 (Homo sapiens) (UniProt Q9H2K8); settings: Compound concentration 100.0 nM
[35] = target: Vascular endothelial growth factor receptor 2 (Homo sapiens) (UniProt P35968); settings: Compound concentration 100.0 nM
Sequence of Vascular endothelial growth factor receptor 2 (Homo sapiens) (P35968 whole entry): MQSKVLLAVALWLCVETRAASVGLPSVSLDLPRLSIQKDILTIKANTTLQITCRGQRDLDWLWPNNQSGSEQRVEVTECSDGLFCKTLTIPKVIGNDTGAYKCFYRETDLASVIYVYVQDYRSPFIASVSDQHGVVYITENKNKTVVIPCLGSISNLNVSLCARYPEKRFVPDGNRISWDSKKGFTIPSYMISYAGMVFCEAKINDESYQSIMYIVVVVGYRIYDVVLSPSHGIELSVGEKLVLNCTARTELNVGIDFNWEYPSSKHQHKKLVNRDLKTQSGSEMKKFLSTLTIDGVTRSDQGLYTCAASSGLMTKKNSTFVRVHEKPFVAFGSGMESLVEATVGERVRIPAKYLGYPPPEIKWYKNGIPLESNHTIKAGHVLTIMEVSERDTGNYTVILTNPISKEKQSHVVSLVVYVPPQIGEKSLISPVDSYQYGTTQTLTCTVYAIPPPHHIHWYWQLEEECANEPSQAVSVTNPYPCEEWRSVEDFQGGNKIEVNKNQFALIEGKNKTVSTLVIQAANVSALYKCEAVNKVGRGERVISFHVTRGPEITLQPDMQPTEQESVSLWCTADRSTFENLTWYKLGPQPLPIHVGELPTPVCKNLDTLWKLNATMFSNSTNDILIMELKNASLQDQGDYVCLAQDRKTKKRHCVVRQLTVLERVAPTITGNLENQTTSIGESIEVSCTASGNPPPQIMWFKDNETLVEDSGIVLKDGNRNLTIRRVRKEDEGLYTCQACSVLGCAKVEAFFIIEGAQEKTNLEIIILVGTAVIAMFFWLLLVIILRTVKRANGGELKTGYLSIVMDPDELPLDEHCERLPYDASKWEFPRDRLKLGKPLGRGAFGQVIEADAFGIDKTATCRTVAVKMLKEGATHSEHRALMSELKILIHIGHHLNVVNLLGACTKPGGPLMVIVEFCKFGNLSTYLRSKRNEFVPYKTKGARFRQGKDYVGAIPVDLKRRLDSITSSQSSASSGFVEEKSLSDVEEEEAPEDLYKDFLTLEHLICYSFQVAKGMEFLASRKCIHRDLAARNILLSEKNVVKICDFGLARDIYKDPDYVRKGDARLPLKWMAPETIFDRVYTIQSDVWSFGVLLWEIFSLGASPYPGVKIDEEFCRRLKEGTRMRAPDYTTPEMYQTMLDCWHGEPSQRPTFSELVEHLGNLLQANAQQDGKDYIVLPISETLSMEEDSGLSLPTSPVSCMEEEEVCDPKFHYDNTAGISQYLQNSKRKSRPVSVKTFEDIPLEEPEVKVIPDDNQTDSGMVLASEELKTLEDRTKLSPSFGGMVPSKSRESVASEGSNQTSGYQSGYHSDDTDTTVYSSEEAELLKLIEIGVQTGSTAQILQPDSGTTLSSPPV

[36] = target: T1, Muscarinic acetylcholine receptor M1 (Homo sapiens) (UniProt P11229); settings: Compound concentration 10.0 uM
T1 sequence (whole entry): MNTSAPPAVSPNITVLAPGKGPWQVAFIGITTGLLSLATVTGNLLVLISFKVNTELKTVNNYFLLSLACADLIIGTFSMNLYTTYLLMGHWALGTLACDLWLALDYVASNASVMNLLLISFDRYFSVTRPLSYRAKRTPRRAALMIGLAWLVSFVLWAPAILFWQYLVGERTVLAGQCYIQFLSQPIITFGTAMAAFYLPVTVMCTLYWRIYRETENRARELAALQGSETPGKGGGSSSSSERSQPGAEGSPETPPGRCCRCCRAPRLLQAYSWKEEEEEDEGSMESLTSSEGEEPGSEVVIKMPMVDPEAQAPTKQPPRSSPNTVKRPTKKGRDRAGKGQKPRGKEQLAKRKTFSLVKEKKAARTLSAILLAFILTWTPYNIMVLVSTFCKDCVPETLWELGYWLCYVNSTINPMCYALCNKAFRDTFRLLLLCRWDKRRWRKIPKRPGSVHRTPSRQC

CC(C)CC(=O)N1CCc2nc(-c3ccc(Br)cc3)nc(N(C)Cc3ccccc3)c2C1 [THPP-1-NC]
inactive: residual activity [1] 92% | residual activity [2] 100% | residual activity [3] 100% | residual activity [4] 100% | residual activity [5] 100% | residual activity [6] 100% | residual activity [7] 100% | residual activity [8] 100% | residual activity [9] 100% | residual activity [10] 74% | residual activity [11] 100% | residual activity [12] 100% | residual activity [13] 100% | residual activity [14] 100% | residual activity [15] 100% | residual activity [16] 100% | residual activity [17] 72% | residual activity [18] 78% | residual activity [19] 71% | residual activity [20] 94% | residual activity [21] 100% | residual activity [22] 100% | residual activity [23] 100% | residual activity [24] 100% | residual activity [25] 100% | residual activity [26] 85% | residual activity [27] 61% | residual activity [28] 100% | residual activity [29] 100% | residual activity [30] 74% | residual activity [31] 94% | residual activity [32] 67% | residual activity [33] 100% | residual activity [34] 100% | residual activity [35] 100% | inhibition [36] 4.18%

COCCOc1nc(-c2ccc(Cl)nc2)nc2c1CN(C(=O)c1ncn3ccccc13)CC2 [THPP-1]
inactive: residual activity [1] 82% | residual activity [2] 100% | residual activity [3] 100% | residual activity [4] 100% | residual activity [5] 100% | residual activity [6] 100% | residual activity [7] 100% | residual activity [8] 100% | residual activity [9] 100% | residual activity [10] 61% | residual activity [11] 100% | residual activity [12] 100% | residual activity [13] 100% | residual activity [14] 100% | residual activity [15] 100% | residual activity [16] 100% | residual activity [17] 76% | residual activity [18] 91% | residual activity [19] 68% | residual activity [20] 100% | residual activity [21] 100% | residual activity [22] 100% | residual activity [23] 100% | residual activity [24] 100% | residual activity [25] 100% | residual activity [26] 67% | residual activity [27] 59% | residual activity [28] 100% | residual activity [29] 100% | residual activity [30] 86% | residual activity [31] 100% | residual activity [32] 82% | residual activity [33] 95% | residual activity [34] 100% | residual activity [35] 100% | inhibition [36] -4.03%
